The source of these data is paper PMC8815882, “Screening the pandemic response box identified benzimidazole carbamates, Olorofim and ravuconazole as promising drug candidates for the treatment of eumycetoma” (PLoS Neglected Tropical Diseases, 2022).

For the experiment, the system named is M. mycetomatis genome strain MM55. The experiment in a line: CLSI M38-A2 based in vitro susceptibility screening (XTT or resazurin), growth at fixed concentration. In kind it is cell-based, Madurella mycetomatis. To be noted: Madurella mycetomatis; for Percent fungal survival at 100 µM: read-out: Percentage survival at 100um, 100 uM A (second replicate column). A general note: Formazan colour is commonly taken as a measure of viable cells.

Setting [1] is: mean of replicates, MM55, read-out: Percentage survival at 25um, 25 uM mean.
Where [2] appears, read: replicate A, MM55, read-out: Percentage survival at 25um, 25 um A.
[3] abbreviates: replicate B, MM55, read-out: Percentage survival at 25um, 25 uM B.
The mark [4] stands for this setting: replicate C, MM55, read-out: Percentage survival at 25um, 25 uM C.
The mark [5] stands for this setting: mean of replicates, MM55, read-out: Percentage survival at 100um, 100 uM mean.
[6] abbreviates: replicate 1, MM55, read-out: Percentage survival at 100um, 100 uM A.
[7] abbreviates: replicate 2, MM55, read-out: Percentage survival at 100um, 100 uM A.
[8] abbreviates: replicate 3, MM55, read-out: Percentage survival at 100um, 100 uM A.
[9] abbreviates: mean of replicates, read-out: Percentage survival at 25um, 25 uM mean.
The mark [10] stands for this setting: replicate A, read-out: Percentage survival at 25um, 25 um A.
Setting [11] is: replicate B, read-out: Percentage survival at 25um, 25 uM B.
The mark [12] stands for this setting: replicate C, read-out: Percentage survival at 25um, 25 uM C.
Where [13] appears, read: mean of replicates, read-out: Percentage survival at 100um, 100 uM mean.
Setting [14] is: replicate 1, read-out: Percentage survival at 100um, 100 uM A.
Setting [15] is: replicate 2, read-out: Percentage survival at 100um, 100 uM A.
[16] abbreviates: replicate 3, read-out: Percentage survival at 100um, 100 uM A.
The mark [17] stands for this setting: mean of three replicates, read-out: Percentage survival at 25um, 25 uM mean.
Setting [18] is: first replicate column, read-out: Percentage survival at 100um, 100 uM A.
Where [19] appears, read: mean of three replicates, read-out: Percentage survival at 100um, 100 uM mean.
The mark [20] stands for this setting: second replicate column, read-out: Percentage survival at 100um, 100 uM A.
[21] abbreviates: third replicate column, read-out: Percentage survival at 100um, 100 uM A.
The mark [22] stands for this setting: replicate 1, read-out: Percentage survival at 100um, 100 uM A (first replicate column).
[23] abbreviates: replicate 3, read-out: Percentage survival at 100um, 100 uM A (third replicate column).

Like-named read-outs stand apart in the source and are kept apart here.

As for `COc1cc(C(C(=O)NC2CCCCC2)N(C(=O)Cc2c[nH]c3ccccc23)c2ccc(C(C)C)cc2)cc(OC)c1OC` (centres unmarked) [MMV1593544], the activity at 25 µM came out at 98.2% under setting [1], 107% under setting [2], 106% under setting [3] and 81.3% under setting [4]. Further, the activity at 100 µM is, setting by setting: under setting [5], 88.5%; under setting [6], 98%; under setting [7], 88.7%; under setting [8], 78.7%.
With `O=c1cc(Nc2ccc3ccccc3c2)[nH]c(=O)[nH]1` [MMV1581546], the activity at 25 µM by setting is: (mean of three, M. mycetomatis MM55, read-out: Percentage survival at 25um, 25 uM mean) 84.3%; (replicate A, M. mycetomatis MM55, read-out: Percentage survival at 25um, 25 um A) 93.6%; (replicate B, M. mycetomatis MM55, read-out: Percentage survival at 25um, 25 uM B) 85%; (replicate C, M. mycetomatis MM55, read-out: Percentage survival at 25um, 25 uM C) 74.5%. The activity at 100 µM worked out at 86% (mean of three, M. mycetomatis MM55, read-out: Percentage survival at 100um, 100 uM mean); 78.9% (replicate 1, M. mycetomatis MM55, read-out: Percentage survival at 100um, 100 uM A (first replicate column)); 80.4% (replicate 3, M. mycetomatis MM55, read-out: Percentage survival at 100um, 100 uM A (third replicate column)). The Percent fungal survival at 100 µM (replicate 2, M. mycetomatis MM55) came out at 98.5%.
For the compound `Cc1c[nH]c(=O)nc1NCc1ccccc1` [MMV1582489], the activity at 25 µM under setting [9] was 93.3%, the activity at 25 µM under setting [10] came to 97.9%, the activity at 25 µM under setting [11] is 91.7% and the activity at 25 µM under setting [12] was 90.3%. For the same compound, the activity at 100 µM stood at 88.7% under setting [13], 101% under setting [14], 80.8% under setting [15] and 84.5% under setting [16].
Turning to `CC(C)N(c1cc(-c2ccccc2)sc1C(=O)O)C(=O)[C@H]1CC[C@H](C)CC1` [MMV1634388], the activity at 25 µM reads like this: under setting [17], 90%; under setting [10], 89.7%; under setting [11], 99.2%; under setting [12], 81.2%. Also, the activity at 100 µM reads like this: under setting [18], 83.3%; under setting [19], 76.1%; under setting [20], 68.1%; under setting [21], 77%.
Take `Nc1nc(O)c2ncn(COC(CO)CO)c2n1` [MMV001761]: the activity at 25 µM came out at 69.6% under setting [17], 86.2% under setting [10], 64.3% under setting [11] and 58.4% under setting [12]. The activity at 100 µM runs as follows: under setting [18], 93.4%; under setting [19], 87%; under setting [20], 85.2%; under setting [21], 82.5%.
For the compound `CCC(CC)[C@H](NC(C)=O)[C@@H]1[C@H](O)[C@@H](C(=O)O)C[C@H]1NC(=N)N` [MMV1593511], the activity at 25 µM was determined as 92.7% under setting [17], 97.1% under setting [10], 98.3% under setting [11] and 82.7% under setting [12]. Further, the activity at 100 µM is, setting by setting: under setting [19], 89.1%; under setting [22], 95.6%; under setting [23], 88.3%. The Percent fungal survival at 100 µM (replicate 2) came out at 83.3%.
Take `Nc1cccc(-c2nc(N)nc(NC3Cc4ccccc4C3)n2)c1` [MMV1581555]: the activity at 25 µM turned out to be 86% under setting [9], 98.9% under setting [10], 85.3% under setting [11] and 73.8% under setting [12]. The activity at 100 µM under setting [13] stood at 85.5%, the activity at 100 µM under setting [14] was 81.1%, the activity at 100 µM under setting [15] was 89% and the activity at 100 µM under setting [16] worked out at 86.6%.
As to `CC[N+]1(C/C2=C/CCCCCC2)CCC(NC(=O)C2c3cc(Cl)ccc3Oc3ccc(Cl)cc32)CC1` (centres unmarked) [MMV1580489], the activity at 25 µM reads like this: under setting [17], 93.8%; under setting [10], 90.3%; under setting [11], 102%; under setting [12], 88.6%. For the same compound, the activity at 100 µM by setting is: under setting [18], -9.19%; under setting [19], -2.01%; under setting [20], -1.42%; under setting [21], 4.58%.
With `c1cnc(NCc2ccc(CNc3ncccn3)cc2)nc1` [MMV1580490], the activity at 25 µM by setting is: under setting [1], 71%; under setting [2], 53.2%; under setting [3], 76.7%; under setting [4], 83.1%. Besides, the activity at 100 µM by setting is: under setting [5], 66.3%; under setting [6], 67.3%; under setting [7], 32.6%; under setting [8], 98.8%.
For the compound `COc1cc(C2C3=C(CC(C)(C)CC3=O)Nc3ccccc3N2C(C)=O)ccc1OCc1ccccc1` (centres unmarked) [MMV1634557], the activity at 25 µM runs as follows: (mean, read-out: Percentage survival at 25um, 25 uM mean) 82.1%; under setting [10], 90.5%; under setting [11], 79.1%; under setting [12], 76.6%. The activity at 100 µM runs as follows: (mean, read-out: Percentage survival at 100um, 100 uM mean) 85.5%; (replicate (first column), read-out: Percentage survival at 100um, 100 uM A) 92.5%; (replicate (second column), read-out: Percentage survival at 100um, 100 uM A) 79.5%; (replicate (third column), read-out: Percentage survival at 100um, 100 uM A) 84.5%.
On to `CC[C@H](NC(=O)[C@H](C)NC)C(=O)N1C[C@@H](O)C[C@H]1Cc1c(-c2[nH]c3cc(F)ccc3c2C[C@@H]2C[C@H](O)CN2C(=O)[C@H](CC)NC(=O)[C@H](C)NC)[nH]c2cc(F)ccc12` [MMV1557856], for which the activity at 25 µM came out at 83.4% under setting [1], 88.1% under setting [2], 92.5% under setting [3] and 69.7% under setting [4]. Also, the activity at 100 µM runs as follows: under setting [5], 68.8%; under setting [6], 72.6%; under setting [7], 66.6%; under setting [8], 67.1%.
With `CC(C)(C)NC(=O)N[C@H](C(=O)N1C[C@H]2[C@@H]([C@H]1C(=O)NC(CC1CCC1)C(=O)C(N)=O)C2(C)C)C(C)(C)C` (some centres unmarked) [MMV1580497], the activity at 25 µM under setting [17] is 88.1%, the activity at 25 µM under setting [10] is 89.4%, the activity at 25 µM under setting [11] worked out at 98% and the activity at 25 µM under setting [12] was 76.8%. Also, the activity at 100 µM runs as follows: under setting [18], 98.5%; under setting [19], 93.6%; under setting [20], 87.9%; under setting [21], 94.6%.
For `Nc1nc(O)c2ncn(COCCO)c2n1` [MMV001961], the activity at 25 µM was found to be 90.3% under setting [17], 88.7% under setting [10], 94.5% under setting [11] and 87.8% under setting [12]. For the same compound, the activity at 100 µM reads like this: under setting [18], 88.4%; under setting [19], 84.1%; under setting [20], 78.9%; under setting [21], 85%.
As to `C[C@@H]1O[C@@H]1P(=O)(O)O` [MMV002354], the activity at 25 µM stood at 88.5% under setting [9], 88.5% under setting [10], 86.5% under setting [11] and 90.5% under setting [12]. The activity at 100 µM under setting [13] is 88.2%, the activity at 100 µM under setting [14] was found to be 81.5%, the activity at 100 µM under setting [15] was 93.4% and the activity at 100 µM under setting [16] was found to be 89.6%.
For `Clc1cccc(-c2nnc(-c3ccccc3)o2)c1` [MMV141011], the activity at 25 µM is, setting by setting: under setting [9], 67.1%; under setting [10], 78.3%; under setting [11], 72.5%; under setting [12], 50.5%. Moreover, the activity at 100 µM is 67.1% under setting [13], 58.8% under setting [14], 65.1% under setting [15] and 77.6% under setting [16].
For `NC(=O)c1[nH]c2ccc(S(N)(=O)=O)cc2c1-c1ccccc1` [MMV1581556], the activity at 25 µM under setting [17] stood at 72.4%, the activity at 25 µM under setting [10] worked out at 70.3%, the activity at 25 µM under setting [11] was determined as 68.8% and the activity at 25 µM under setting [12] amounted to 78.1%. The activity at 100 µM turned out to be 70.1% under setting [19], 77.5% under setting [22] and 64.9% under setting [23]. For the same compound, for the setting “replicate 2”, the Percent fungal survival at 100 µM was 68%.
